Results taken from patent EP4818171A1 (Apeiron Therapeutics (Hong Kong) Ltd., priority 2024, dated 2025).
Like-named read-outs stand apart in the source and are kept apart here.

What was measured:
[1] = tested on: LU99 MTAP overexpressing cells; assay: Inhibitory activity on proliferation of LU99 MTAP overexpressing cells (Cell-Titer Glo); format: cell-based; settings: 6 d incubation
Procedure: Materials and cells: LU99 MTAP overexpressing cell line was purchased from Kyinno Biotechnology (China); cell culture medium and fetal bovine serum were purchased from Thermo Fisher Scientific (USA); 384-well plates were purchased from PerkinElmer (USA); Cell-Titer Glo kits were purchased from Promega (USA).
Cell culture: LU99 MTAP overexpressing cells were cultured with medium containing 10% fetal bovine serum at 37°C in 5% carbon dioxide. Only cells in the logarithmic growth phase could be used for the test.
Test of inhibitory activity on cell proliferation: The Cell-Titer Glo kit was used to test the proliferation inhibitory activity of the compounds on LU99 MTAP overexpressing cells. The cell concentration was adjusted, rendering that cells were inoculated into a 384-well plate at 40 µL per well and incubated overnight at 37°C and 5% carbon dioxide. 40 nL of the compound was added to each well to reach a final concentration of 0-10,000 nM (starting concentration 10,000 nM, 2.5-fold dilution, 10 points), and the cell plate with 0.2% DMSO content was incubated at 37°C and 5% carbon dioxide for 6 d. 40 µL of Cell-Titer Glo reagent was added to test cell viability.

[2] = tested on: LU99 MTAP(-/-)deleted cells; assay: Inhibitory activity on proliferation of LU99 MTAP(-/-)deleted cells (Cell-Titer Glo)
Procedure: Materials and cells: LU99 MTAP deleted cell line was purchased from Kyinno Biotechnology (China); cell culture medium and fetal bovine serum were purchased from Thermo Fisher Scientific (USA); 384-well plates were purchased from PerkinElmer (USA); Cell-Titer Glo kits were purchased from Promega (USA). Cell culture: LU99 MTAP(-/-)deleted cells were cultured with medium containing 10% fetal bovine serum at 37°C in 5% carbon dioxide. Only cells in the logarithmic growth phase could be used for the test.
Test of inhibitory activity on cell proliferation: The Cell-Titer Glo kit was used to test the proliferation inhibitory activity of the compounds on LU99 MTAP(-/-)deleted cells. The cell concentration was adjusted, rendering that cells were inoculated into a 384-well plate at 40 µL per well and incubated overnight at 37°C and 5% carbon dioxide. […] 40 µL of Cell-Titer Glo reagent was added to test cell viability.

[3] = tested on: HCT-116 wild-type cells; assay: Inhibitory activity on proliferation of HCT-116 wild-type cells (Cell-Titer Glo); format: cell-based; settings: 8 d incubation
Procedure: Cell culture: HCT-116 wild-type cells were cultured with a RPMI-1640 medium containing 10% fetal bovine serum+1% penicillin-streptomycin at 37°C in 5% carbon dioxide. Only cells in the logarithmic growth phase could be used for the test.
Test of cell proliferation activity: Cell-Titer Glo kit was used to test the proliferation inhibitory activity of the compound on HCT-116 wild-type cells. The cell concentration was adjusted, rendering that cells were inoculated into a 384-well plate at 40 µL per well and incubated overnight at 37°C and 5% carbon dioxide. 40 nL of the compound was added to each well to reach a final concentration of 0-10,000 nM (starting concentration 10,000 nM, 2-fold dilution, 10 points), and the cell plate with 0.1% DMSO content was incubated at 37°C and 5% carbon dioxide for 8 d. 40 µL of Cell-Titer Glo reagent was added to test cell viability.

[4] = tested on: HCT-116 MTAP(-/-)deleted cells; assay: Inhibitory activity on proliferation of HCT-116 MTAP(-/-)deleted cells (Cell-Titer Glo)
Procedure: Only cells in the logarithmic growth phase could be used for the test. […] The cell concentration was adjusted, rendering that cells were inoculated into a 384-well plate at 40 µL per well and incubated overnight at 37°C and 5% carbon dioxide. 40 nL of the compound was added to each well to reach a final concentration of 0-10,000 nM (starting concentration 10,000 nM, 3-fold dilution, 10 points), and the cell plate with 0.1% DMSO content was incubated at 37°C and 5% carbon dioxide for 8 d. 40 µL of Cell-Titer Glo reagent was added to test cell viability.

[5] = Homo sapiens, Lu-99, 144 h, read-out: IC50 (nM) Lu99 MTAP(-/-)Deleted, LU99 MTAP(-/-)deleted cells, 6 d incubation, Cell-Titer Glo
[6] = Homo sapiens, HCT-116, 192 h, read-out: IC50 (nM) HCT-116 MTAP(-/-)deleted
[7] = read-out: IC50 (nM) Lu99 MTAP(-/-)Deleted, LU99 MTAP(-/-)deleted cells, 6 d incubation, Cell-Titer Glo
[8] = Homo sapiens, HCT-116, 192 h, read-out: IC50 (nM) HCT-116 MTAP(-/-)deleted, HCT-116 MTAP(-/-)deleted cells, 8 d incubation, Cell-Titer Glo

| IC50 ([3]; Homo sapiens, HCT-116, 192 h) [nM] | IC50 [4, 6] [nM] | Compound | IC50 ([1]; Homo sapiens, Lu-99, 144 h) [nM] | IC50 [2, 5] [nM] | other results |
| --- | --- | --- | --- | --- | --- |
|  |  | CN(C(=O)c1ccc2nc(N)c3cncn3c2c1)C1COC(C)(C)c2c1ccc1c2OCO1 (centres unmarked) [Example 18] | 756 | 99.6 |  |
|  |  | CN(C(=O)c1ccc2nc(N)c3cncn3c2c1)C1COC2(CCCOC2)c2cc(C(F)(F)F)ccc21 (centres unmarked) [Example 24, 4-Amino-N-methyl-N-(7-(trifluoromethyl)-5',6'-dihydro-2'H,4'H-spiro[isochroman-1,3'-pyran]-4-yl)imidazo[1,5-a]quinoxaline-8-carboxamide] | 1470 | 9.54 |  |
| 902 | 5.2 | CN(C(=O)c1ccc2nc(N)c3cncn3c2c1)[C@@H]1COC2(CCOCC2)c2cc(C(F)(F)F)ccc21 [Example 100, (S)-4-amino-N-methyl-N-(7'-(trifluoromethyl)-2',3',5',6'-tetrahydrospiro[isochroman-1,4'-pyran]-4-yl)imidazo[1,5-a]quinoxaline-8-carboxamide] | 938 | 8.5 |  |
| 4520 | 51.5 | CN(C(=O)c1ccc2nc(N)c3cncn3c2c1)C1COC2(CCC3(CC3)CC2)c2cc(C(F)(F)F)ccc21 (centres unmarked) [Example 23] | 3970 | 66.1 |  |
| 7050 | 34.1 | CN(C(=O)c1ccc2nc(N)c3cncn3c2c1)[C@@H]1COC2(CCC2)c2cc(-n3cc(C(F)(F)F)cn3)ncc21 [Example 45, (S)-4-amino-N-methyl-N-(7'-(4-(trifluoromethyl)-1H-pyrazol-1-yl)-3',4'-dihydrospiro[cyclobutane-1,1'-pyrano[4,3-c]pyridine]-4'-yl)imidazo[1,5-a]quinoxaline-8-carboxamide] | 4710 | 30.2 |  |
| 636 | 5.1 | CN(C(=O)c1ccc2nc(N)c3cncn3c2c1)[C@H]1COC2(CCC2)c2cc(C(F)(F)F)ccc21 [Example 3, (R)-4-amino-N-methyl-N-(7'-(trifluoromethyl)spiro[cyclobutane-1,1'-isochroman]-4'-yl)imidazo[1,5-a]quinoxaline-8-carboxamide] | 624 |  | IC50 [2, 7]: 8.3 nM |
| 1610 | 5.9 | CN(C(=O)c1cc2c(cc1F)nc(N)c1cncn12)C1COC2(CCOCC2)c2cc(C(F)(F)F)ccc21 (centres unmarked) [Example 16, 4-Amino-7-fluoro-N-methyl-N-(7-(trifluoromethyl)-2',3',5',6'-tetrahydrospiro[isochroman-1,4'-pyran]-4-yl)imidazo[1,5-a]quinoxaline-8-carboxamide] | 1290 | 10.8 |  |
|  |  | CN(C(=O)c1ccc2nc(N)c3cncn3c2c1)[C@H]1COC2(CCC2)c2cc(C(F)(F)F)ccc21 (stereo in doubt) [Example 4, (R)-4-amino-N-methyl-N-(7'-(trifluoromethyl)spiro[cyclobutane-1,1'-isochroman]-4'-yl)imidazo[1,5-a]quinoxaline-8-carboxamide] |  |  | IC50 [1]: 742 nM; IC50 [2, 7]: 1100 nM |
| > 20000 |  | CN(C(=O)c1ccc2nc(N)c3cncn3c2c1)[C@@H]1COC2(CCC2)c2cc(N3CCNCC3)ncc21 [Example 21, (S)-4-amino-N-methyl-N-(7'-(piperazin-1-yl)-3'-,4'-dihydrospiro[cyclobutane-1,1'-pyrano[4,3-c]pyridine]-4'-yl)imidazo[1,5-a]quinoxaline-8-carboxamide] | 12500 | > 1000 | IC50 [4, 8]: > 1000 nM |
|  |  | CN(C(=O)c1ccc2nc(N)c3cncn3c2c1)[C@@H]1COC2(CCC2)c2nc(N3CCOCC3)ccc21 [Example 5, (S)-4-amino-N-methyl-N-(2'-morpholinyl-5',6'-dihydrospiro[cyclobutane-1,8'-pyrano[3,4-b]pyridine]-5'-yl)imidazo[1,5-a]quinoxaline-8-carboxamide] | 2360 | 961 |  |
| 2220 | 6.5 | CN(C(=O)c1ccc2nc(N)c3cncn3c2c1)C1COC2(CCCC2)c2cc(C(F)(F)F)ccc21 (centres unmarked) [Example 9, 4-Amino-N-methyl-N-(7'-(trifluoromethyl)spiro[cyclopentane-1,1'-isochroman]-4'-yl)imidazo[1,5-a]quinoxaline-8-carboxamide] | 1980 | 10.9 |  |
| 9490 | 403 | CN(C(=O)c1ccc2nc(N)c3cncn3c2c1)[C@H]1COC2(CCOCC2)c2cc(C(F)(F)F)ccc21 [Example 101, (R)-4-amino-N-methyl-N-(7'-(trifluoromethyl)-2',3',5',6'-tetrahydrospiro[isochroman-1,4'-pyran]-4-yl)imidazo[1,5-a]quinoxaline-8-carboxamide] | 5640 | > 1000 |  |
|  |  | 4-amino-N-methyl-N-(7'-(trifluoromethyl)spiro[cyclobutane-1,1'-isochroman]-4'-yl)imidazo[1,5-a]quinoxaline-8-carboxamide [Example 1] |  |  | IC50 [3]: 959 nM; IC50 [1]: 652 nM; IC50 [2, 7]: 13.2 nM; IC50 ([4]; read-out: IC50 (nM) HCT-116 MTAP(-/-)deleted, HCT-116 MTAP(-/-)deleted cells, 8 d incubation, Cell-Titer Glo): 10 nM |
|  |  | CN(C(=O)c1cc2c(cc1F)nc(N)c1cncn12)C1COC2(CCCOC2)c2cc(C(F)(F)F)ccc21 (centres unmarked) [Example 50, 4-Amino-7-fluoro-N-methyl-N-(7-(trifluoromethyl)-5',6'-dihydro-2'H,4'H-spiro[isochroman-1,3'-pyran]-4-yl)imidazo[1,5-a]quinoxaline-8-carboxamide] | 591 | 7.13 |  |
| > 10000 |  | CN(C(=O)c1ccc2nc(N)c3cncn3c2c1)C1COC2(CCC2)c2cc(N3CCOCC3)ncc21 (centres unmarked) [Example 28, 4-Amino-N-methyl-N-(7'-morpholinyl-3',4'-dihydrospiro[cyclobutane-1,1'-pyrano[4,3-c]pyridine]-4'-yl)imidazo[1,5-a]quinoxaline-8-carboxamide] | 3880 | 88.5 | IC50 [4, 8]: 110 nM |
|  |  | CN(C(=O)c1ccc2nc(N)c3cncn3c2c1)C1COC(C)(C)c2cc(C(F)(F)F)ncc21 (centres unmarked) [Example 99, 4-Amino-N-(1,1-dimethyl-7-(trifluoromethyl)-3,4-dihydro-1H-pyrano[4,3-c]pyridin-4-yl)-N-methylimidazo[1,5-a]quinoxaline-8-carboxamide] | 2970 | 152 |  |
|  |  | CN(C(=O)c1cc2c(cc1F)nc(N)c1cncn12)[C@@H]1COC2(CCC2)c2cc(C(F)(F)F)ccc21 [Example 15, (S)-4-amino-7-fluoro-N-methyl-N-(7'-(trifluoromethyl)spiro[cyclobutane-1,1'-isochroman]-4'-yl)imidazo[1,5-a]quinoxaline-8-carboxamide] | 425 | 7.1 |  |

| Compound | IC50 ([3]; Homo sapiens, HCT-116, 192 h) [nM] | IC50 [4, 6] [nM] | IC50 ([1]; Homo sapiens, Lu-99, 144 h) [nM] | IC50 [2, 5] [nM] | other results |
| --- | --- | --- | --- | --- | --- |
| CN(C(=O)c1ccc2nc(N)c3cncn3c2c1)[C@@H]1COC2(CCC2)c2cc(N3C4COCC3C4)ncc21 [Example 48, N-((4'S)-7'-(3-oxa-6-azabicyclo[3.1.1]heptane-6-yl)-3',4'-dihydrospiro[cyclobutane-1,1'-pyrano[4,3-c]pyridine]-4'-yl)-4-amino-N-methylimidazo[1,5-a]quinoxaline-8-carboxamide] | > 20000 | 144 | 10600 | 150 |  |
| CN(C(=O)c1ccc2nc(N)c3cncn3c2c1)[C@@H]1COC2(CCC2)c2cc(N3CC[Si](C)(C)CC3)ncc21 [Example 34] |  | 40 | 1430 |  | IC50 ([3]; Homo sapiens, 192 h): 5250 nM; IC50 ([2]; Homo sapiens, Lu-99, 144 h, read-out: IC50 (nM) Lu99 MTAP(-/-)Deleted): 41.5 nM |
